Data on one compound can be found in ChEMBL document CHEMBL3425444, “Discovery of piperidin-4-yl-aminopyrimidine derivatives as potent non-nucleoside HIV-1 reverse transcriptase inhibitors” (Eur J Med Chem, 2015).

Data set [1] can be described thus: Selectivity index, ratio of CC50 for human MT4 cells to EC50 for HIV1 3B infected in human MT4 cells. The data set is classed as toxicity, cell-based. The conditions noted are these: HIV1 3B infected MT4 cells, read-out: Selectivity Index.
Data set [2] has as its system Human immunodeficiency virus 2. The data set is described as follows: Antiviral activity against HIV-2 ROD infected in human MT4 cells assessed as protection from virus-induced cytopathicity after 4 days by MTT assay. The data set is classed as functional, organism-based. The conditions noted are these: Human immunodeficiency virus 2, ISOLATE ROD, MT4, 96 h. (In general: Cytopathic effects are the visible damage that an infection or toxin causes in cultured cells.)

Data set [3] concerns the target Human immunodeficiency virus type 1 reverse transcriptase (Human immunodeficiency virus 1, UniProt Q72547). Briefly: Inhibition of HIV1 recombinant wild type reverse transcriptase p66/p51 assessed as reduction in biotin-labeled dUTP incorporation into DNA using polyr(A) x oligo(dT)16 template/primer hybrid.
In data set [4] the test system is Human immunodeficiency virus 1. The data set is described as follows: Antiviral activity against HIV-1 RES056 harboring reverse transcriptase K103N/Y181C double mutant infected in human MT4 cells assessed as protection from virus-induced cytopathicity after 4 days by MTT assay. The note with it: Human immunodeficiency virus 1, RES056, MT4, 96 h. Type of data set: functional, organism-based.

The subject of data set [5] is Human immunodeficiency virus 1. The data set is described as follows: Antiviral activity against wild type HIV1 3B infected in human MT4 cells assessed as protection from virus-induced cytopathicity after 4 days by MTT assay. Type of data set: functional, organism-based. The note with it: Human immunodeficiency virus 1, 3B, MT4, 96 h.
The nature of data set [6]: Retention time of the compound by HPLC analysis. Type of data set: physicochemical.
A short description of data set [7]: Cytotoxicity against human MT4 cells assessed as reduction of cell viability after 4 days by MTT assay. Type of data set: cell-based. For orientation: Formazan colour is commonly taken as a measure of viable cells.

In general, EC50 refers to the concentration that produces a half-maximal response. By IC50 is commonly meant the concentration at which inhibition is half-maximal. What is called CC50 is the concentration that lowers cell viability or growth by half. `Cc1cc(C#N)cc(C)c1Oc1ccnc(NC2CCN(CC(=O)Nc3cccc([N+](=O)[O-])c3)CC2)n1`: the selectivity ratio in data set [1] was at least 49. Besides, the EC50 in data set [2] is above 379 nM; in data set [4] it was above 379 nM; in data set [5], 7.8 nM. Moreover, the IC50 in data set [3] is 156 nM. For the same compound, the Retention_time in data set [6] was 11.49 min. For the same compound, the CC50 at 96 h in data set [7] is at least 379 nM.
